Data as given in PMC6522510 (Nature Communications, 2019).
Read-outs that look alike come from different tables or passages of the source.

What was measured:
Design in all cases: species or system AML cell lines (8); Primary HTS, single concentration about 10 uM, Cell Titer Glo viability; log10 luminescence, per cent inhibition relative to cycloheximide control
Details in all cases: 72 h, inhibitor
M07e = test system: M07e
MV4-11 = test system: MV4-11
CHRF288-11 = test system: CHRF288-11
CMK = test system: CMK
U937 = test system: U937
MOLM-13 = test system: MOLM-13
CMS = test system: CMS
ML-2 = test system: ML-2
[1] = relative to cycloheximide control, log10 luminescence

Structure (SMILES)	M07e %inh (M07e; [1])	MV4-11 %inh (MV4-11; [1])	CHRF288-11 %inh (CHRF288-11; [1])	CMK %inh (CMK; [1])	U937 %inh (U937; [1])	MOLM-13 %inh (MOLM-13; [1])	CMS %inh (CMS; [1])	ML-2 %inh (ML-2; [1])	M07e %inh (M07e; 10 µM)	MV4-11 %inh (MV4-11; 10 µM)	CHRF288-11 %inh (CHRF288-11; 10 µM)	CMK %inh (CMK; 10 µM)	U937 %inh (U937; 10 µM)	MOLM-13 %inh (MOLM-13; 10 µM)	CMS %inh (CMS; 10 µM)	ML-2 %inh (ML-2; 10 µM)
C[C@]12CCC(=O)C=C1[C@@H]1C[C@@H]1[C@H]1[C@@H]3[C@@H]4C[C@@H]4[C@@]4(CCC(=O)O4)[C@@]3(C)CC[C@@H]12 [SJ000312356-2, DROSPIRENONE]	3.09%	3.583%	6.784%	38.69%	3.696%	1.327%	0.9318%	-0.6244%								
COc1ccc2nc3cc(Cl)ccc3c(Nc3cc(CN4CCCC4)c(O)c(CN4CCCC4)c3)c2n1 [SJ000518979-1, PYRONARIDINE PHOSPHATE]	115%	74.19%	68.68%	87.35%	76.7%	93.43%	102.4%	59.06%								
Clc1ccc2c(N3CCN(CCCN4CCN(c5ccnc6cc(Cl)ccc56)CC4)CC3)ccnc2c1 [SJ000518980-1, PIPERAQUINE PHOSPHATE]	-0.3802%	0.4168%	-8.556%	-2.506%	-2.593%	-0.1677%	3.926%	-2.97%								
CO[C@H]1C[C@@H]2CC[C@@H](C)[C@@](O)(O2)C(=O)C(=O)N2CCCC[C@H]2C(=O)O[C@H]([C@H](C)C[C@@H]2CC[C@@H](OC(=O)C(C)(CO)CO)[C@H](OC)C2)CC(=O)[C@H](C)/C=C(\C)[C@@H](O)[C@@H](OC)C(=O)[C@H](C)C[C@H](C)/C=C/C=C/C=C/1C [SJ000518987-1, TEMSIROLIMUS | CCI-779 | NSC-683864 | TORISEL | TEMSIROLIMUS (CCI-779, NSC 683864)]	19.45%	11.74%	29.37%	14.34%	25.81%	6.723%	21.7%	9.499%								
Oc1ncc(N(CCCl)CCCl)c(O)n1 [SJ000518988-1, URACIL MUSTARD]									2.028%	-1.171%	3.507%	-4.305%	-0.2311%	-0.3938%	1.52%	1.705%
CO[C@H]1O[C@@H]2O[C@@]3(C)CC[C@H]4[C@H](C)CC[C@@H]([C@H]1C)[C@@]24OO3 [SJ000519015-1]	0.2631%	9.901%	-0.3434%	0.2838%	20.8%	2.58%	7.594%	5.533%								
CC[C@H](C)[C@@H]1NC(=O)[C@H](Cc2ccc(O)cc2)NC(=O)[C@@H](N)CSSC[C@@H](C(=O)N2CCC[C@H]2C(=O)N[C@@H](CC(C)C)C(=O)NCC(N)=O)NC(=O)[C@H](CC(N)=O)NC(=O)[C@H](CCC(N)=O)NC1=O [SJ000519020-1, OXYTOCIN]	0.04623%	1.343%	-2.465%	-2.47%	-1.829%	-2.698%	-0.7099%	-0.7579%								
CCCN(CCc1ccc(O)cc1)C(=O)[C@@H](C)c1cccc(C(=O)c2ccccc2)c1 [SJ000520373-2, NMDA298-1]	11.25%	11.33%	9.808%	9.519%	10.97%	13.67%	3.128%	1.661%								
C[C@@H](O)[C@@H]1NC(=O)[C@H](CCCCN)NC(=O)[C@@H](Cc2c[nH]c3ccccc23)NC(=O)[C@H](Cc2ccccc2)NC(=O)[C@@H](NC(=O)[C@H](N)Cc2ccccc2)CSSC[C@@H](C(=O)N[C@H](CO)[C@@H](C)O)NC1=O [SJ000520506-1, OCTREOTIDE ACETATE]	-0.4484%	0.9577%	5.062%	-5.736%	-3.486%	0.6504%	0.6202%	0.4552%								
